Measurements published in ChEMBL document CHEMBL1145073, “DNA binding ligands targeting drug-resistant bacteria: structure, activity, and pharmacology” (J Med Chem, 2003).
Converted amounts (≈) assume the structure as drawn. Blank lines part the entries; values can stand above or below the compound they belong to.

What was measured:
[1] = system: Bacillus cereus; assay: In vitro antimicrobial activity against Bacillus cereus 11778; format: functional
[2] = target: Nucleic Acid; assay: Apparent binding affinity against DNA (5'-ACAATTAA-3') was determined using DNase I footprinting titration method; format: nucleic-acid assay; settings: read-out: Kd app
[3] = system: Mus musculus; assay: Acute tolerability of compound […] female mice after intravenous administration was determined; Lethality 3/5; format: functional, organism-based
[4] = system: Staphylococcus aureus; assay: In vitro antimicrobial activity against methicillin resistant Staphylococcus aureus 27660; format: functional
[5] = In vitro antimicrobial activity against penicillin-intermediate Streptococcus pneumoniae 49619; format: functional
[6] = In vitro antimicrobial activity against penicillin resistant Streptococcus pneumoniae 51422; format: functional
[7] = system: Enterococcus faecalis; assay: In vitro antimicrobial activity against vancomycin-susceptible Enterococcus faecalis 29212; format: functional
[8] = system: Candida albicans; assay: In vitro antimicrobial activity against Candida albicans 38247; format: functional
[9] = system: Enterococcus faecalis; assay: In vitro antimicrobial activity against vancomycin-resistant Enterococcus faecalis 51559
[10] = system: Enterococcus faecalis; assay: In vitro antimicrobial activity against vancomycin-resistant Enterococcus faecalis 51559; format: functional
[11] = system: Mus musculus; assay: Acute tolerability of compound in 5 ICR female mice after intravenous administration was determined; Lethality 1/5
[12] = system: Mus musculus; assay: Acute tolerability of compound in 4 ICR female mice after intravenous administration was determined; No adverse effects; format: functional, organism-based
[13] = system: Mus musculus; assay: Acute tolerability of compound […] female mice after intravenous administration was determined; Lethality 5/5; format: functional, organism-based
[14] = system: Mus musculus; assay: Acute tolerability of compound in 4 ICR female mice after intravenous administration was determined; no adverse effects; format: functional, organism-based
[15] = system: Mus musculus; assay: Acute tolerability of compound […] female mice after intravenous administration was determined; 5/5 lethargy; format: functional, organism-based
[16] = system: Staphylococcus aureus; assay: In vitro antimicrobial activity against MSSA 13709; format: functional
[17] = system: Mus musculus; assay: Acute tolerability of compound in 4 ICR female mice after intravenous administration was determined; Lethality 1/4; format: functional, organism-based
[18] = Candida albicans, read-out: MIC

SMILES: Cn1cc(NC(=O)c2cc(NC(=O)c3cc(NC(=O)c4sccc4Cl)cn3C)cn2C)cc1C(=O)NCCCN1CCCCC1
- MIC [1]: 8 µg/mL (≈ 12.2 µM)
- Kd [2]: 50 nM
- Acute tolerability [3]: Lethality 3/5
- MIC [4]: 8 µg/mL (≈ 12.2 µM)
- MIC [5]: 4 µg/mL (≈ 6.12 µM)
- MIC [6]: 16 µg/mL (≈ 24.5 µM)
- MIC [7]: 4 µg/mL (≈ 6.12 µM)
- MIC [8, 18]: > 32 µg/mL
- MIC [9]: 16 µg/mL (≈ 24.5 µM)

SMILES: Cn1cc(NC(=O)c2cc(NC(=O)c3cc(NC(=O)c4sccc4Cl)cn3C)cn2C)cc1C(=O)NCCN1CCC(F)CC1
- MIC [1]: 1 µg/mL (≈ 1.52 µM)
- Kd [2]: 5 nM
- MIC [4]: 1 µg/mL (≈ 1.52 µM)
- MIC [5]: 0.031 µg/mL (≈ 0.0472 µM)
- MIC [6]: 0.125 µg/mL (≈ 0.19 µM)
- MIC [7]: 1 µg/mL (≈ 1.52 µM)
- MIC [10]: 0.5 µg/mL (≈ 0.761 µM)
- MIC [8, 18]: > 32 µg/mL
- Acute tolerability [11]: Lethality 1/5

- MIC [1]: 0.25 µg/mL (≈ 0.353 µM)
- MIC [5]: 0.125 µg/mL (≈ 0.176 µM)
- MIC [7]: 0.25 µg/mL (≈ 0.353 µM)
- MIC [8, 18]: > 32 µg/mL
SMILES: Cn1cc(NC(=O)c2cc(NC(=O)c3cc(NC(=O)c4sc5cc(F)ccc5c4Cl)cn3C)cn2C)cc1C(=O)NCCN1CCOCC1
- Acute tolerability [12]: No adverse effects

SMILES: Cn1cc(NC(=O)c2cc(NC(=O)c3cc(NC(=O)c4cc5ccccc5cn4)cn3C)cn2C)cc1C(=O)NCCN1CCSCC1
- MIC [1]: 0.25 µg/mL (≈ 0.374 µM)
- Kd [2]: 1 nM
- Acute tolerability [12]: No adverse effects
- MIC [4]: 0.125 µg/mL (≈ 0.187 µM)
- MIC [5]: 0.031 µg/mL (≈ 0.0464 µM)
- MIC [6]: 0.062 µg/mL (≈ 0.0928 µM)
- MIC [7]: 0.25 µg/mL (≈ 0.374 µM)
- MIC [10]: 0.125 µg/mL (≈ 0.187 µM)
- MIC [8, 18]: > 32 µg/mL

SMILES: Cn1cc(NC(=O)c2cc(NC(=O)c3cc(-c4ccc(Cl)cc4F)cn3C)cn2C)cc1C(=O)NCCN1CCOCC1
- MIC [1]: 0.5 µg/mL (≈ 0.82 µM)
- Kd [2]: 0.1 nM
- Acute tolerability [13]: Lethality 5/5
- MIC [4]: 2 µg/mL (≈ 3.28 µM)
- MIC [5]: 0.25 µg/mL (≈ 0.41 µM)
- MIC [6]: 0.062 µg/mL (≈ 0.102 µM)
- MIC [7]: 0.5 µg/mL (≈ 0.82 µM)
- MIC [10]: 0.5 µg/mL (≈ 0.82 µM)
- MIC [8, 18]: > 32 µg/mL

SMILES: Cc1cnc(-c2cc(C(=O)Nc3cc(C(=O)Nc4cc(C(=O)NCCN5CCOCC5)n(C)c4)n(C)c3)n(C)c2)cn1
- MIC [1]: 1 µg/mL (≈ 1.74 µM)
- Acute tolerability [13]: Lethality 5/5
- MIC [4]: 2 µg/mL (≈ 3.49 µM)
- MIC [5]: 0.25 µg/mL (≈ 0.436 µM)
- MIC [6]: 0.25 µg/mL (≈ 0.436 µM)
- MIC [7]: 0.5 µg/mL (≈ 0.872 µM)
- MIC [10]: 4 µg/mL (≈ 6.97 µM)
- MIC [8, 18]: > 32 µg/mL

SMILES: Cn1cc(NC(=O)c2cc(NC(=O)c3cc(NC(=O)c4sccc4Cl)cn3C)cn2C)cc1C(=O)NCCN1CCSCC1
- MIC [1]: 0.5 µg/mL (≈ 0.761 µM)
- Kd [2]: < 1 nM
- Acute tolerability [12]: No adverse effects
- MIC [4]: 1 µg/mL (≈ 1.52 µM)
- MIC [5]: 0.125 µg/mL (≈ 0.19 µM)
- MIC [6]: 0.062 µg/mL (≈ 0.0943 µM)
- MIC [7]: 0.5 µg/mL (≈ 0.761 µM)
- MIC [10]: 2 µg/mL (≈ 3.04 µM)
- MIC [8, 18]: > 32 µg/mL

SMILES: Cn1cc(NC(=O)c2cc(NC(=O)c3cc(-c4sccc4Cl)cn3C)cn2C)cc1C(=O)NCCN1CCOCC1
- MIC [1]: 1 µg/mL (≈ 1.67 µM)
- Kd [2]: 20 nM
- Acute tolerability [14]: no adverse effects
- MIC [4]: 4 µg/mL (≈ 6.69 µM)
- MIC [5]: 0.125 µg/mL (≈ 0.209 µM)
- MIC [6]: 0.125 µg/mL (≈ 0.209 µM)
- MIC [7]: 1 µg/mL (≈ 1.67 µM)
- MIC [10]: 1 µg/mL (≈ 1.67 µM)
- MIC [8]: > 32 µg/mL

SMILES: Cn1cc(NC(=O)c2cc(NC(=O)c3cc(NC(=O)c4sccc4Cl)cn3C)cn2C)cc1C(=O)NCCN1CCCCC1
- MIC [1]: 0.5 µg/mL (≈ 0.782 µM)
- Kd [2]: 5 nM
- Acute tolerability [15]: 5/5 lethargy
- MIC [4]: 0.5 µg/mL (≈ 0.782 µM)
- MIC [5]: 0.25 µg/mL (≈ 0.391 µM)
- MIC [6]: 2 µg/mL (≈ 3.13 µM)
- MIC [7]: 0.5 µg/mL (≈ 0.782 µM)
- MIC [8, 18]: 32 µg/mL (≈ 50.1 µM)
- MIC [9]: 2 µg/mL (≈ 3.13 µM)

- MIC [16]: > 32 µg/mL
- MIC [5]: > 32 µg/mL
- MIC [7]: > 32 µg/mL
SMILES: Cn1cc(NC(=O)c2cc(NC(=O)c3cc(-c4nccs4)cn3C)cn2C)cc1C(=O)NCCN1CCOCC1

- MIC [16]: 16 µg/mL (≈ 26.2 µM)
- MIC [5]: 4 µg/mL (≈ 6.56 µM)
- MIC [7]: 8 µg/mL (≈ 13.1 µM)
SMILES: Cn1cc(NC(=O)c2cc(NC(=O)c3cc(-c4ccc(F)cc4Cl)cn3C)cn2C)cc1C(=O)NCCN1CCOCC1

- MIC [1]: 2 µg/mL (≈ 3.09 µM)
- MIC [5]: 0.031 µg/mL (≈ 0.0479 µM)
- MIC [7]: 0.5 µg/mL (≈ 0.773 µM)
- MIC [8, 18]: > 32 µg/mL
SMILES: Cn1cc(NC(=O)c2cc(NC(=O)c3cc(NC(=O)c4cn5ccsc5n4)cn3C)cn2C)cc1C(=O)NCCN1CCOCC1
- Acute tolerability [17]: Lethality 1/4
